Values after ≈ are worked out from the molar mass of the structure shown. Values joined by “and” are separate entries in the source; they are usually repeats but may differ in a detail not shown here. Equal values may be shown once. Read-outs that look alike come from different tables or passages of the source.
Tests used:
[1] = Conductivity measurements of 160 mM solutions; assay type: physicochemical
Description: Conductivity was measured using a Thermo Scientific Orion Star […] conductivity meter using a DuraProbe 4-electrode conductivity cell. […] The clean probe was introduced into each solution to record the conductivity. The conductivity was measured in triplicate for each of the solutions.

[2] = Aqueous solubility; assay type: physicochemical; settings: water
[3] = target: T1, human serum albumin (HSA) (Homo sapiens, UniProt P02768); settings: for free energy of binding: calculated from KA
T1 sequence (P02768 25-609): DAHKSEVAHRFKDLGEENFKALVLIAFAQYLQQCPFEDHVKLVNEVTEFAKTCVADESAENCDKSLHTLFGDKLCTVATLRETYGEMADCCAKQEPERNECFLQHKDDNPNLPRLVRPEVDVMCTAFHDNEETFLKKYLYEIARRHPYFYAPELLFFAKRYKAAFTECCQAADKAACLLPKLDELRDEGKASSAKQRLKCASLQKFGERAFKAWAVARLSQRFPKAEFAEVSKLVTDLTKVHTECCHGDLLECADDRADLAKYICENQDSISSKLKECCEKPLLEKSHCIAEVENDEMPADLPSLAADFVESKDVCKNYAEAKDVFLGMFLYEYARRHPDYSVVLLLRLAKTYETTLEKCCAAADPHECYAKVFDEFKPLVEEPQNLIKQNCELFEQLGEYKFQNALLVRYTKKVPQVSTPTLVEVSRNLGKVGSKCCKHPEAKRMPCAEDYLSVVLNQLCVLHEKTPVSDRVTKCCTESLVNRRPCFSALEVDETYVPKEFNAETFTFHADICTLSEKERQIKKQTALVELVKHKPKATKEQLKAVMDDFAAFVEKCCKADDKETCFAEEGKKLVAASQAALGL

[4] = target: T2, HSA (Homo sapiens, UniProt P02768); assay: Dynamic light scattering size and zeta potential of HSA systems; settings: 0.1 mg/mL HSA in 10 μM SO3SQ, no IL
T2 sequence (P02768 25-609): as above

[5] = in the presence of fetal bovine serum; cited from earlier work
[6] = target: T2, HSA; assay: Circular dichroism spectroscopy of HSA; settings: 1 mg/mL HSA; 10 μM SO3SQ, with or without 160 mM CG (1:1)
Description: CD experiments to determine the impact the 1:1 SO3SQ and CG 1:1 may have on HSA and DNA were performed on a Jasco J-1500 CD spectrophotometer. The measurements were performed using a Jasco Spectrosil 1 mm path length cuvette. Samples containing HSA were prepared at 1 mg/mL in either water, 10 μM SO3SQ in water, and 10 μM SO3SQ in water with 1:1 160 mM CG 1:1 added. The protein scans were conducted at a 200-260 nm range. For measurements involving DNA, bacterial plasmid DNA was used, and the DNA concentration was maintained at 12 nM across all samples due to high instrument sensitivity. CG 1:1 was added at 2.5% v/v to achieve a 160 mM concentration. A solution of 9.14 μM SO3SQ in water was made and added to DNA solutions in 5 μL increments. These scans were completed over a 200-350 nm range.

[7] = target: T1, human serum albumin (HSA); settings: dissolved in human serum albumin (HSA); cited from earlier work
[8] = target: T2, HSA; assay: Isothermal titration calorimetry of HSA titrated into SO3SQ; assay type: binding
Description: ITC measurements were carried out in triplicate on a Malvern VP-ITC. Uncertainties are provided as the standard error of the mean. The solvent was either buffer alone (25 mM sodium phosphate, pH 6.5) or buffer plus 40 mM CG 1:1. HSA was dialyzed into the appropriate buffer, and solid SO3SQ was dissolved in dialysis buffer to ensure a close buffer match. This was necessary in order to prevent strong heats of dilution that are often observed when ILs are titrated in separately. Both HSA and dye solutions were degassed for 10 min before experiments. A typical experiment contained 60 μM HSA in the syringe and 60 μM dye in the calorimetry cell. A total of 28 injections were typically used, each 10 μL in volume, and 10 min of equilibration time was allowed to occur between injections. Measurements were performed at 25° C. Because injection heats and corresponding signal-to-noise ratios were small, manual baseline fitting was performed using Origin software. Since K and N cannot be determined using this ratio of HSA and dye in the presence of CG 1:1, only the enthalpy is accessible from these measurements. The enthalpy for each ITC experiment was reported as the average enthalpy of the first 10 useable injections, which were all similar. […] For reverse titrations, performed without CG 1:1, N, K, and ΔH were fit using CHASM, and the heat of the final injection was used as the baseline. The number of binding sites per HSA molecule was reported as the inverse value of N from fitting, as is typical for reverse titrations. Finally, titrations were also performed where SO3SQ or HSA was systematically removed, one at a time, in the presence and absence of CG 1:1, to determine whether dilution heats were contributing to the measured enthalpy. In all cases, dilution heats were small, less than 10% of the observed enthalpy, and no further corrections were made.

[9] = 10 μM dye; IL scanned 0-240 mM or additive at 160 mM
[10] = absence of CG 1:1, reverse titration, 25° C.

[Cl-].[Na+] [NaCl]
Conductivity, Mean ± SD [1]: 20.4 ± 0.2 μS/cm
Conductivity, Replicate 1 [1]: 20.2 μS/cm
Conductivity, Replicate 2 [1]: 20.6 μS/cm
Conductivity, Replicate 3 [1]: 20.3 μS/cm
average conductance [1]: 20.4±0.2 mS/cm
conductance relative to that of the IL [1]: 100 ×

CC1=C(c2ccc(OCCCCS(=O)(=O)O)cc2)/C(=C2/C(=O)C(c3c(-c4ccc(OCCCCS(=O)(=O)[O-])cc4)c(C)c4ccccn34)C2O)[n+]2ccccc21 (stereo not drawn) [SO3SQ]
solubility [2]: ~60 µM (≈ 47.9 µg/mL)
apparent association constant KA,app of HSA in SO3SQ ([3]; 10 μM SO3SQ, no IL): 3.2×10^5 and 2.0×10^5
free energy of binding ([3]; system containing just the dye): -7.4 kcal/mol
free energy of binding ([3]; system containing the dye and IL): -8.0 kcal/mol
average charge (zeta potential) [4]: −20±5 mV
average size [4]: 150±20 nm
fluorescence quantum yield ΦF [5]: 58%
effect on the secondary structure of HSA [6]: increase in the alpha helical content
fluorescence quantum yield ΦF [7]: 61.1%
K [8, 10]: (1.8±0.4)×10^6
N (number of binding sites per HSA molecule) [8, 10]: 11.5±0.4
heat of binding, ΔH [8, 10]: -18 ± 2 kcal/mol
ΔG° [8, 10]: -8.50 ± 0.13 kcal/mol
enthalpy of binding between HSA and SO3SQ, ΔH ([8]; buffer containing 40 mM ionic liquid, 25 mM sodium phosphate pH 6.5, 25° C.): 6.1 ± 0.2 kcal/mol

O=C(O)CO [glycolic acid]
effect on the dye's fluorescence in the presence of blood [9]: little impact

Source: patent publication US20250354930A1, “IONIC LIQUID ENCAPSULATION OF NIR DYES FOR THE IMPROVEMENT OF BLOODSTAIN DETECTION” (University of Mississippi, priority 2024, published 2025)
